Some results are limits rather than exact numbers.

The target of the experiment is T1, human DGAT1 (Homo sapiens, UniProt O75907).
T1 construct: (His)6; made in house; host or cells: Sf9 insect cells (membrane preparation)
T1 sequence (O75907 1-488): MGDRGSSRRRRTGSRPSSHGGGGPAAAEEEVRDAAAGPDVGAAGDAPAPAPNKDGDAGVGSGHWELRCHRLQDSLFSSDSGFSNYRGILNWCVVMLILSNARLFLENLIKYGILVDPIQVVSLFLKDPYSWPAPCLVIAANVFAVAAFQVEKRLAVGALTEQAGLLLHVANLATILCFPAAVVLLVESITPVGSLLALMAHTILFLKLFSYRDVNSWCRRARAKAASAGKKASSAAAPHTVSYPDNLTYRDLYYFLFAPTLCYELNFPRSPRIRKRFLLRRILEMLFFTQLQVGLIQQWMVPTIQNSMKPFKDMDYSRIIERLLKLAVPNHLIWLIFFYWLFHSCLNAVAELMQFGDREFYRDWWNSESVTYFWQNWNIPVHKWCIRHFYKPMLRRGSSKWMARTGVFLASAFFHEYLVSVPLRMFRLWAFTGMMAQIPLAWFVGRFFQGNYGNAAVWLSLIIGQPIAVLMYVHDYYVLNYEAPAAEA
Description: DGAT1 enzyme inhibition assay (Sf9 membrane preparation, LC/MS/MS readout). The format is biochemical. The settings on record: membrane preparation from Sf9 cells overexpressing human (His)6DGAT1; 10-point, 3-fold dose response; read-out: IC50 (inhibitory activity to human DGAT1). As for the experimental part: The enzyme preparation used in this assay is a membrane preparation from Sf9 cells overexpressing human (His)6DGAT1. During all steps samples were chilled to 4° C. Sf9 cells expressing human (His)6DGAT1 were thawed at RT and re-suspended at a 10:1 ratio (mL buffer/g of cells) in 50 mM HEPES, 1× Complete Protease Inhibitor, pH 7.5. The re-suspended pellet was homogenized for 1 min using a Brinkman PT 10/35 homogenizer with a 20 mm generator. Cells were lysed using Avestin Emulsiflex (chilled to 4° C.) at 10000-15000 psi. Lysate was centrifuged at 100,000×g for 1 h at 4° C. Supernatant was removed and pellets were re-suspended in 50 mM HEPES, 1× Complete Protease Inhibitor, pH 7.5 at ⅙ the volume of supernatant. Re-suspended pellets were pooled and homogenized with 10 strokes of a Glas-Col motor driven teflon pestle on setting 70. The protein concentration of the membrane preparation was quantified using BCA protein assay with 1% SDS. The membrane preparation was aliquoted, frozen on dry ice, and stored at −80° C.
For 50 mL, 25 mL of 0.2 M HEPES stock buffer, 0.5 mL of 1 M MgCl2 (5 mM final concentration), and 24.5 mL of milli-Q H20 are added to the 55 mL Wheaton Potter-Elvehjem homogenizer. Enzyme preparation (0.1 mL) is added to buffer and the mixture is homogenized with 5 strokes on ice using the Glas-Col variable speed homogenizer system on setting 70.
For 50 mL, 0.5 mL 10 mM diolein is added to 9.5 mL of EtOH in a 50 mL Falcon screw cap conical centrifuge tube. Five mL of 10 mM sodium acetate pH 4.5 is added followed by 0.5 mL of 10 mM oleoyl-CoA. Finally, the remaining 4.5 mL of 10 mM sodium acetate pH 4.5 is added followed by 30 mL of milli-Q H2O. The solution should be gently agitated by hand to induce mixing. The final concentrations of EtOH and sodium acetate are 20% and 2 mM, respectively.
Dry compounds are dissolved in the appropriate volume of DMSO to a final concentration of 10 mM. A 10-point, 3-fold dose response is used to evaluate compound potency. All dilutions are performed in DMSO in a Greiner 384-well microplate. • 1. 2 μL of compound in DMSO is added to the appropriate wells. 2 μL of DMSO is added to 100% activity and 100% inhibition controls. • 2. 25 μL of enzyme mix is added to all wells and plate(s) are incubated for 10 min at RT. • 3. 10 μL of 20% acetic acid quench is added to 100% inhibition control wells. Plate(s) are vortexed using Troemner multi-tube vortexer (setting 7 for 10 sec). • 4. 25 μL of substrate mix is added to all wells. Plate(s) are vortexed using Troemner multi-tube vortexer (setting 7 for 10 sec). Plate(s) are incubated for 30 min at RT. • 5. 10 μL of 20% acetic acid quench is added to all wells. Plate(s) are vortexed using Troemner multi-tube vortexer (setting 7 for 10 sec). • 6. 50 μL of 1-butanol w/ glyceryl tripalmitoleate internal standard is added to all wells. • 7. Plate(s) are sealed with super pierce strong plate sealer using the thermo-sealer.
8. Plate(s) are vortexed using Troemner multi-tube vortexer (setting 10 for 5 min). • 9. Plate(s) are centrifuged at 162×g (1000 rpm for GH-3.8 rotor) for 5 min using Beckman GS-6R tabletop centrifuge.
Samples were analyzed by LC/MS/MS using a Waters 1525μ LC and Quattro Micro API MS. Where indicated, tripalmitolein was used as an internal standard to control for instrument variation.
Data is converted to % inhibition prior to curve fitting using the following equation: […]

As a reminder, the IC50 is the concentration that inhibits the measured activity by half. As to `Cc1cncc(-c2nnc(-c3ccc4nc(-c5c(Cl)cccc5Cl)[nH]c4c3)o2)c1` [Example 1-15, 2-(2,6-Dichloro-phenyl)-6-[5-(5-methyl-pyridin-3-yl)-[1,3,4]oxadiazol-2-yl]-1H-benzoimidazole], the IC50 was found to be 2300 nM.
Consider `Clc1cccc(Cl)c1-c1nc2ccc(-c3nc(-c4ccccc4)c(-c4ccccc4)o3)cc2[nH]1` [Example 1-24, 2-(2,6-Dichloro-phenyl)-6-(4,5-diphenyl-oxazol-2-yl)-1H -benzoimidazole], for which the IC50 was > 10000 nM.
As for `Cc1nc(-c2ccc3nc(-c4c(Cl)cccc4Cl)[nH]c3c2)oc1-c1ccc(Cl)cc1` [Example 1-25, 6-[5-(4-Chlorophenyl)-4-methyl-oxazol-2-yl]-2-(2,6-dichlorophenyl)-1H-benzoimidazole], the IC50 came to 4700 nM.
As for `Clc1cccc(Cl)c1-c1nc2ccc(-c3nnc(Nc4cccnc4)o3)cc2[nH]1` [Example 1-29, {5-[2-(2,6-Dichloro-phenyl)-3H-benzoimidazol-5-yl]-[1,3,4]oxadiazol-2-yl}-pyridin-3-yl-amine], the figure is 400 nM.
The same measure for `Clc1cccc(Cl)c1-c1nc2ccc(-c3nnc(N4CCCC4)o3)cc2[nH]1` [Example 1-34, 2-(2,6-Dichloro-phenyl)-6-(5-pyrrolidin-1-yl-[1,3,4]oxadiazol-2-yl)-1H-benzoimidazole]: > 10000 nM.
As for `Cc1ccc(Nc2nnc(-c3ccc4nc(-c5c(Cl)cccc5Cl)[nH]c4c3)o2)cn1` [Example 1-38, {5-[2-(2,6-Dichloro-phenyl)-3H-benzoimidazol-5-yl]-[1,3,4]oxadiazol-2-yl}-(6-methyl-pyridin-3-yl)-amine], the figure is 54 nM.
Take `Clc1cc(Nc2nnc(-c3ccc4nc(-c5c(Cl)cccc5Cl)[nH]c4c3)o2)ccn1` [Example 1-43, (2-Chloro-pyridin-4-yl)-{5-[2-(2,6-dichloro-phenyl)-3H-benzoimidazol-5-yl]-[1,3,4]oxadiazol-2-yl}-amine]: the IC50 was 80 nM.
The same measure for `N#Cc1cccc(Nc2nnc(-c3ccc4nc(-c5c(Cl)cccc5Cl)[nH]c4c3)o2)c1` [Example 1-51, 3-{5-[2-(2,6-Dichloro-phenyl)-3H-benzoimidazol-5-yl]-[1,3,4]oxadiazol-2-ylamino}-benzonitrile]: 310 nM.
Take `Cc1cc(CCC(=O)O)cc(C)c1-c1nc2ccc(-c3nnc(Nc4cccc(Cl)c4)o3)cc2[nH]1` [Example 1-59, 3-(4-{6-[5-(3-Chlorophenylamino)-[1,3,4]oxadiazol-2-yl]-1H-benzoimidazol-2-yl}-3,5-dimethylphenyl)-propionic acid]: the IC50 stood at 9 nM.
As for `COc1ccc(-c2nnc(-c3ccc4nc(-c5c(C)cc(CC(C)(C)C(=O)O)cc5C)[nH]c4c3)o2)cc1` [Example 1-62, 3-(4-{5-[5-(4-Methoxy-phenyl)-[1,3,4]oxadiazol-2-yl]-1H-benzoimidazol-2-yl}-3,5-dimethyl-phenyl)-2,2-dimethyl-propionic acid], the figure is 15 nM.

The values are drawn from patent publication US8217065B2, “Organic compounds” (Novartis AG, priority 2007, dated 2012).
